Results: patent US20180221306A1, “PHARMACEUTICAL COMPOSITIONS OF 5-HYDROXY-2-METHYLNAPHTHALENE-1,4-DIONE” (PellFiCure Pharmaceuticals, Inc., priority 2016, published 2018)
≈ marks a conversion by molar mass, not a printed value.

Columns and labels:
[1] = Water uptake of Compound I (Karl Fischer coulometric analysis); assay type: physicochemical
Method: For the purposes of establishing material handling practices, Compound I was evaluated for water uptake in various controlled conditions. Compound I was exposed to 25° C./60% relative humidity and 40° C./75% relative humidity for up to one day. Approximately 200 mg of Compound I was accurately weighed into separate glass vials and placed uncapped in stability chambers. At various time points, the vials were removed, stoppered and crimped, and the water content for Compound I powder was determined by standard Karl Fischer coulometric analysis.

Sprague Dawley rats = assay: Single-dose maximum tolerated dose (MTD) study; assay type: in vivo, rat; conditions: 200 or 300 mg/kg, once, oral gavage
Method: (§1) A single-dose maximum tolerated dose (MTD) phase A study and a 7-day dose range-finding (DRF) phase B study were conducted in Sprague Dawley rats by MPI Research, Inc. (Mattawan, Mich.). A total of 62 males and 62 females rats were assigned to the study, which was performed in accordance with all current regulations. Animals were housed in standard conditions and had ad libitum access to food and water. Healthy animals of each sex were randomized into treatment groups using a standard, by weight, measured value randomization procedure. Compound I was administered by oral gavage, once at each dose level in Phase A (acute), or once daily for 7 consecutive days in Phase B. Oral gavage was chosen because the oral route is the intended route of administration in humans. Animals were observed twice daily for morbidity and mortality and were euthanatized for humane reasons where appropriate. An initial starting dose of 50 mg/kg was used for Phase A. Subsequent doses were increased or decreased based on the response to the preceding dose. […] The dose levels used in Phase B were based on the MTD identified in Phase A.
(§2) A single-dose maximum tolerated dose (MTD) study and a seven consecutive day dose-range finding study were carried out in Sprague Dawley by orally administering a formulation of Compound I in Carrier A. In the MTD phase, doses of 50, 100, 200 and 300 mg/kg were administered once to Sprague Dawley rats by oral gavage. The single-dose MTD of Compound I in rats was found at 100 mg/kg.

[2] = Single-dose maximum tolerated dose (MTD) study; assay type: in vivo, rat; conditions: both sexes, Sprague Dawley, rat, in vivo; rats, oral gavage, Compound I in Carrier A
Method: as §1, §2

rat = conditions: suspension in 0.5% of gum acacia in water or in propylene glycol, oral; cited from earlier work
TRAMP-C2 tumor cells = assay: Orthotopic prostate cancer survival study, TRAMP-C2 cells in C57BL/6 mice; assay type: in vivo, mouse; conditions: 1 mg/kg per oral plus castration; p<0.001
Method: (§3) Orthotopic injection of PTEN-P2 and TRAMP-C2 for survival studies: Mice were anaesthetized and an incision was made through the skin and peritoneum. A total of 30,000 cells were suspended in Matrigel and slowly injected into the dorsal lobe of the prostate using a 30-gauge needle. Matrigel was used to prevent the leakage of cells out of the site of injection. A Q-tip was held over the injection site for 1 min to prevent bleeding and spill after removal of the needle. The abdominal wall was closed by surgical silk sutures.
(§4) Fox1/Nu or C57BL/6J mice were used as recipients for PTEN-P2 and TRAMP-C2 cells, respectively. Mice were surgically castrated 6 weeks later, when tumors were established, and Compound I treatment was initiated 4-5 days later. The number of days mice lived following treatment initiation was recorded for each animal. A few mice were found dead upon daily inspection, while others were euthanized in agreement with our IACUC regulations, including mice showing weight losses of more than 15% and mice showing signs of pain though posture and lack of grooming were euthanized.
A second study, shown in FIG. 6, used cells derived from the transgenic adenocarcinoma of the mouse prostate (TRAMP) model. The TRAMP model was generated through prostate-specific expression of the large T antigen of SV40 in the prostate epithelium. […]

physchem = assay type: physicochemical; conditions: for solubility thermodynamic: 25 °C, thermodynamic from solid
Method: The maximum quantity of Compound I that can be completely dissolved at 25° C. in the several aqueous buffers and other solvents was evaluated using HPLC. […] Samples were injected with a 250 μg/ml nominal concentration. For samples of unknown concentration, dilutions were made to target the linear range of the method. All samples were quantified based on a linear standard curve. Measurements were performed by Pharmatek Laboratories, Inc. (San Diego, Calif.) with industry-standard quality controls.

PTEN-P2 mouse cells = assay: Orthotopic prostate cancer survival study, PTEN-P2 cells in Fox1/Nu mice; assay type: in vivo
Method: as §3, §4
An orthotopic model of prostate cancer in which 30,000 PTEN-P2 mouse cells were injected into the prostate of Fox1/Nu mice was used. Mice were castrated 5 weeks after the PTEN-P2 mouse cells were injected into the prostate, which allowed the tumors to become established. […] The number of days mice lived following treatment initiation was recorded for each animal.

mice = conditions: over a period of 14 days; cited from earlier work

**Q.** Which Water content ([1]; 25° C./60% RH, 0 hours) does the source give for `CC1=CC(=O)c2c(O)cccc2C1=O` [Compound I, 5-hydroxy-2-methylnaphthalene-1,4-dione] here?
**A.** 0.023%

**Q.** What about the Water content ([1]; 25° C./60% RH, 5 hours) of the same compound?
**A.** 0.026%

**Q.** And the Water content ([1]; 25° C./60% RH, 24 hours)?
**A.** 0.029%

**Q.** And the “Water content of Compound I powder (in words)” value ([1]; 25° C./60% and 40° C./75% relative humidity, up to one day)?
**A.** anhydrous

**Q.** What about the “Water content” value ([1]; 40° C./75% RH, 0 hours) of the same compound?
**A.** 0.023%

**Q.** What about the “Water content” value ([1]; 40° C./75% RH, 5 hours) of the same compound?
**A.** 0.027%

**Q.** And the “Water content” value ([1]; 40° C./75% RH, 24 hours)?
**A.** 0.031%

**Q.** What about the “Sensitivity to water uptake” value ([1]; at up to 75% relative humidity) of the same compound?
**A.** not sensitive to water uptake

**Q.** What about the Adverse clinical events (Sprague Dawley rats) of the same compound?
**A.** decreased activity, abnormal body carriage and piloerection

**Q.** What about the “Mortality after acute administration” value (Sprague Dawley rats) of the same compound?
**A.** unscheduled deaths in male rats on Days 1 and 2 but not in females

**Q.** What about the MTD [2] of the same compound?
**A.** 100 mg/kg

**Q.** And the LD50 (rat)?
**A.** 65 mg/kg

**Q.** And the “Longer survival of 50% of the combination-treated mice vs castration alone” value (TRAMP-C2 tumor cells)?
**A.** 200 days

**Q.** And the “Solubility in Carrier A” value (physchem)?
**A.** well soluble

**Q.** And the “Solubility in aqueous media” value (physchem)?
**A.** mostly insoluble

**Q.** What about the “Solubility in mixtures of triacylglycerols” value (physchem) of the same compound?
**A.** good solubility

**Q.** And the “Solubility in organic solvents” value (physchem)?
**A.** good solubility

**Q.** And the solubility thermodynamic (physchem; pH 1, aqueous buffer)?
**A.** 48 µg/mL (≈ 255 µM)

**Q.** What about the solubility thermodynamic (physchem; pH 2, aqueous buffer) of the same compound?
**A.** 45 µg/mL (≈ 239 µM)

**Q.** What about the solubility thermodynamic (physchem; pH 3, aqueous buffer) of the same compound?
**A.** 49 µg/mL (≈ 260 µM)

**Q.** And the solubility thermodynamic (physchem; pH 4, aqueous buffer)?
**A.** 16 µg/mL (≈ 85 µM)

**Q.** What about the solubility thermodynamic (physchem; pH 5, aqueous buffer) of the same compound?
**A.** 46 µg/mL (≈ 244 µM)

**Q.** What about the solubility thermodynamic (physchem; pH 6, aqueous buffer) of the same compound?
**A.** 44 µg/mL (≈ 234 µM)

**Q.** What about the solubility thermodynamic (physchem; pH 7, aqueous buffer) of the same compound?
**A.** 49 µg/mL (≈ 260 µM)

**Q.** And the solubility thermodynamic (physchem; pH 8, aqueous buffer)?
**A.** 43 µg/mL (≈ 229 µM)

**Q.** What about the solubility thermodynamic (physchem; pH 9, aqueous buffer) of the same compound?
**A.** 75 µg/mL (≈ 399 µM)

**Q.** What about the solubility thermodynamic (physchem; pH 10, aqueous buffer) of the same compound?
**A.** 240 µg/mL (≈ 1280 µM)

**Q.** What about the solubility thermodynamic (physchem; water) of the same compound?
**A.** 72 µg/mL (≈ 383 µM)

**Q.** What about the “Survival, combination with castration vs castration alone” value (PTEN-P2 mouse cells; oral 1 mg/kg/day in Carrier A plus castration, p=0.01) of the same compound?
**A.** survived significantly longer

**Q.** And the “Survival, Compound I alone vs castration alone” value (PTEN-P2 mouse cells; oral 1 mg/kg/day in Carrier A, p=0.118)?
**A.** not statistically different

**Q.** What about the “Survival, combination with castration vs untreated control” value (PTEN-P2 mouse cells; oral formulation plus castration, p=0.042) of the same compound?
**A.** survived longer

**Q.** What about the “Survival, Compound I alone vs untreated control” value (PTEN-P2 mouse cells; p=0.296) of the same compound?
**A.** not statistically different

**Q.** And the LD50 (mice)?
**A.** 8 mg/kg
